Source: patent US20160122320A1, “USEFUL COMBINATIONS OF MONOBACTAM ANTIBIOTICS WITH BETA-LACTAMASE INHIBITORS” (Basilea Pharmaceutica AG, priority 2005, published 2016)

Key:
Experiment in all cases: MIC, NCCLS broth microdilution
Type in all cases: cell-based
[1] = test system: Enterobacter aerogenes Zayakosky; settings: Enterobacter aerogenes Zayakosky; + compound 323 and sulbactam, 4 mg/L each
[2] = test system: Enterobacter aerogenes B1
[3] = test system: Serratia marcescens S6
[4] = test system: Acinetobacter sp. J2; settings: Acinetobacter baumannii J2
[5] = test system: Pseudomonas aeruginosa MK1184; settings: with 102 and sulbactam
[6] = test system: Stenotrophomonas malthophilia 1AC736; settings: Stenotrophomonas maltophilia 1AC736
[7] = test system: Pseudomonas aeruginosa 1973E
Summary of the method: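 Growth inhibition read by eye after overnight incubation (30° C. or 37° C.) defines the MIC, using NCCLS M7-A5 broth microdilution with ≤1% DMSO. When combinations were tested, only the formula I compound was titrated and each partner was fixed at 4 μg/mL.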

[8] = test system: Klebsiella pneumoniae CF104

C[C@H]1[C@H](NC(=O)/C(=N\OC(C)(C)C(=O)O)c2csc(N)n2)C(=O)N1S(=O)(=O)O [Aztreonam, aztreonam, reference compound]
Minimal Inhibitory Concentration of antibiotic at fixed inhibitor concentration of 4 mg/L [1]: 8 mg/L | Minimal Inhibitory Concentration of antibiotic at fixed inhibitor concentration of 4 mg/L ([2]; + compound 206 4 mg/L): 8 mg/L | Minimal Inhibitory Concentration of antibiotic at fixed inhibitor concentration of 4 mg/L ([2]; + compound 323 and sulbactam, 4 mg/L each): 8 mg/L | MIC of antibiotic at fixed inhibitor concentration of 4 mg/L ([3]; with 102 and clavulanate): 2 mg/L | MIC of antibiotic at fixed inhibitor concentration of 4 mg/L ([3]; with 102 and sulbactam): 2 mg/L | MIC of antibiotic at fixed inhibitor concentration of 4 mg/L ([4]; with 102 and clavulanate): 16 mg/L | MIC of antibiotic at fixed inhibitor concentration of 4 mg/L ([4]; with 102 and sulbactam): 4 mg/L | MIC of antibiotic at fixed inhibitor concentration of 4 mg/L [5]: 16 mg/L | MIC of antibiotic at fixed inhibitor concentration of 4 mg/L ([6]; with 102 and clavulanate): 4 mg/L | MIC of antibiotic at fixed inhibitor concentration of 4 mg/L ([6]; with 102 and sulbactam): 8 mg/L | MIC of antibiotic ([7]; antibiotic alone, no inhibitor): 8 mg/L | MIC of antibiotic at fixed inhibitor concentration of 4 mg/L ([7]; with 102 and clavulanate): 8 mg/L | MIC of antibiotic at fixed inhibitor concentration of 4 mg/L ([7]; with 102 and sulbactam): 4 mg/L | MIC of antibiotic at fixed inhibitor concentration of 4 mg/L ([8]; with 102 and clavulanate): 0.5 mg/L | MIC of antibiotic at fixed inhibitor concentration of 4 mg/L ([8]; with 102 and sulbactam): 1 mg/L
